Data taken from US10576082B2, “ErbB2 regulates autophagic flux to modulate the proteostasis of APP-CTFs in alzheimer's disease” (Academia Sinica, priority 2016, dated 2020).

Columns and labels:
[1] = test system: zebrafish embryos expressing GFP-tagged C99; assay: C99-expressing zebrafish model of AD, Western blotting of embryo lysates; type: in vivo; conditions: treated from 48 hpf to 72 hpf at 28° C.
Protocol: (§1) (A) IMR32 cells overexpressing C99-YFP were grown with 2 ml fresh culture medium in 6-well plates, and treated with 1 μM CL-387,785 or DAPT at 37° C. for 24 h. The cell extracts were analyzed by Western blotting. (B) Conditional media were harvested and processed for determination of secreted Aβ40 using a colorimetric Aβ40-specific ELISA kit. (C) C99-YFP-expressing IMR32 cells (160,000 cells/well) were seeded onto 6-well plates and cultured at 37° C. for 24 h, and infected with ErbB1- or ErbB2-targeting shRNA lentivirus for an additional 48 h. Infection mixtures were replaced with 2 ml fresh culture medium, and infected cells were then incubated at 37° C. for an additional 24 h. The cell extracts were analyzed by Western blotting with anti-GFP antibody. (D) The conditioned media were harvested and processed for determination of secreted Aβ40. Data are the mean±SD from three independent experiments, and were analyzed by Student's t-tests. * p<0.05. (E) Schematic presentation of the DNA construct encoding recombinant C99-GFP-P2A-GFP. CMV, human cytomegalovirus promoter; CI, chimeric intron; P2A, porcine teschovirus 2A peptide. […]
Overexpression of APP-C99 zebrafish. […] Clarified lysates containing equal amounts of protein were analyzed by Western blotting.

[2] = test system: IMR32 neuroblastoma cells overexpressing C99-YFP; assay: Secreted Aβ40 ELISA, conditional media of IMR32 cells overexpressing C99-YFP; type: cell-based, human; conditions: compound 1 μM, 37° C., 24 h
Protocol: as §1, with “C99-GFP-P2A-GFP.” for “C99-GFP-P2A-GFP. CMV, human cytomegalovirus promoter; CI, chimeric intron; P2A, porcine teschovirus 2A peptide.”
Cell-based γ-secretase assays for the nuclear function of AICD or NICD. […] Cellular luminescence was determined by the addition of Steady-Glo Luciferase Assay reagents (PROMEGA™), according to the manufacturer's instructions. […] The level of secreted Aβ40 was quantified using a human Aβ40 sandwich ELISA kit (Invitrogen) according to the manufacturer's instructions.

CC#CC(=O)Nc1ccc2ncnc(Nc3cccc(Br)c3)c2c1 [CL-387,785, N-[4-[(3-bromophenyl)amino]-6-quinazolinyl]-2-butynamide]
level of AICD in embryos [1]: concomitant clearance
level of C99 in embryos [1]: concomitant clearance
level of secreted Aβ40 [2]: significantly reduced
